Reference: paper PMC9145622, “Synthesis, Biological Evaluation, and Docking Studies of Antagonistic Hydroxylated Arecaidine Esters Targeting mAChRs” (Molecules, 2022)

Assays:
[1] = High-throughput HPLC-logD; assay type: physicochemical; conditions: octadecyl-poly(vinyl alcohol) column, methanol / 0.01 M sodium phosphate buffer pH 7.4
Description: For this, logD values were estimated in an HPLC-based high-throughput assay employing an octadecyl-poly(vinyl alcohol) stationary phase. The absence of silanol groups renders this type of column especially suited in case of analytes with hydrogen bond donor capabilities as it avoids overestimating their lipophilicity.
Briefly, a mixture of toluene (≥98%, Sigma-Aldrich, St. Louis, MO, USA) and triphenylene (≥99.9%, Carl Roth, Karlsruhe, Germany) was used as internal standard. Samples were dissolved in the internal standard mixture. Using gradient elution, the injection volume was set to 7 µL, the flow rate was 1.5 mL/min, and the mobile phase consisted of a mixture of methanol and 0.01 M sodium phosphate buffer pH 7.4. The HPLC-logD values were derived from the measured retention times following the previously published equation [21, 40].

[2] = biological target: T1, hM2 (Homo sapiens, UniProt P08172); assay: Competitive [3H]NMS radioligand binding, CHO-K1 membranes expressing hM2; conditions: [3H]NMS, CHO-hM2 cell membrane preparations; >1000 values from two independent (single-concentration) experiments; read-out: Affinity: Ki ± SD hM2
T1 sequence (P08172 1-466): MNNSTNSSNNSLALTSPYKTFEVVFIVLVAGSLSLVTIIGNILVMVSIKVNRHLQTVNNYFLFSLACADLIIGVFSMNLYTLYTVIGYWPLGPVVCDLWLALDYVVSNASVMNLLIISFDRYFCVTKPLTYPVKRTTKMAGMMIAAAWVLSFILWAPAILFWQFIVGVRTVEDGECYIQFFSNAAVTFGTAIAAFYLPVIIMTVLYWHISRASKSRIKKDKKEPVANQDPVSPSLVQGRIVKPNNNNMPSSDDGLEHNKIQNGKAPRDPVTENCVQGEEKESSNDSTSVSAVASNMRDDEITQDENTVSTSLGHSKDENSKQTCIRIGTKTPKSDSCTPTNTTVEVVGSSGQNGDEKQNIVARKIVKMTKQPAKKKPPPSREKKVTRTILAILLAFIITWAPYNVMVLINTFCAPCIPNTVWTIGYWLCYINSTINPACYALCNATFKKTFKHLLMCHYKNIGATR
Description: (§1) The arecaidine esters’ affinities towards the human mAChR subtypes hM1–hM5 were studied in a competitive radioligand binding assay using CHO-K1 cell membrane homogenates expressing a single mAChR subtype and tritiated N-methyl scopolamine methyl chloride ([^3H]NMS). To speed up our affinity testing regime, we subjected all test substances to preliminary single-concentration displacement assays, as described previously. Compounds with percent displacements below 75% at any of the subtypes were dropped from further investigations (Table S1). For compounds meeting the percent displacement threshold (8c, 10b, 10c, 17b, 18b, and 25), inhibition constants (Ki) were assessed in dose-dependent displacement experiments (Table 2).
(§2) Cell membranes bearing hM1-hM5 receptors were prepared as described previously. Briefly, stably transfected CHO-K1 cells were grown to at least 80% confluency in T175 flasks, washed with ice-cold DPBS, and scraped into a mixture of ice-cold 2 mL 10 mM Tris-HCl, 1 mM EDTA-buffer, pH 7.4 and 200 µL protease inhibitor. A cell homogenate was prepared by passing the cell suspension through a G29 needle. The cell homogenates corresponding to two T175 flasks were combined and subsequently centrifuged (10 min, 1000× g, 4 °C). Ultracentrifugation of the supernatant (1 h, 100,000× g, 4 °C) yielded a membrane pellet, which was suspended in 250 µL 50 mM Tris-HCl buffer, pH 7.4 and stored at −80 °C.
(§3) Then, 5 µL of test compound in DMSO, 50 µL of [^3H]NMS in assay buffer, and 445 µL of membrane suspension in assay buffer were incubated for 90 min at 23 °C in PP tubes. Maximum binding was measured by using 5 µL DMSO, and nonspecific binding was measured by using 5 µL of 1 µM scopolamine in DMSO. The effective concentration of [^3H]NMS was 0.2 nM, 0.3 nM, 0.8 nM, 0.2 nM, and 1 nM for M1–M5 and 4–30 µg membrane were used per tube. The membrane-bound radioactivity was recovered by filtration through Whatman™ GF/B glass fiber filters presoaked in aqueous 0.1% PEI using an M-36 tygon tubed cell harvester (Brandel®, Gaithersburg, MD, USA). Membranes were washed three times with ice-cold washing buffer (50 mM Tris, pH 7.4) before being dried, transferred to 2 mL scintillation cocktail (UltimaGold™, high flashpoint LSC cocktail, PerkinElmer, Waltham, MA, USA) and counted in a β-counter (Hidex TDCR liquid scintillation counter in CPM mode). IC50 values were calculated by a variable slope logistic regression using at least five distinct concentrations of test compounds, pipetted in triplicates.

[3] = biological target: hM3 (Homo sapiens, UniProt P20309); assay: Competitive [3H]NMS radioligand binding, CHO-K1 membranes expressing hM3; conditions: [3H]NMS, CHO-hM3 cell membrane preparations; read-out: Affinity: Ki ± SD hM3
Chain of hM3 (P20309 whole entry): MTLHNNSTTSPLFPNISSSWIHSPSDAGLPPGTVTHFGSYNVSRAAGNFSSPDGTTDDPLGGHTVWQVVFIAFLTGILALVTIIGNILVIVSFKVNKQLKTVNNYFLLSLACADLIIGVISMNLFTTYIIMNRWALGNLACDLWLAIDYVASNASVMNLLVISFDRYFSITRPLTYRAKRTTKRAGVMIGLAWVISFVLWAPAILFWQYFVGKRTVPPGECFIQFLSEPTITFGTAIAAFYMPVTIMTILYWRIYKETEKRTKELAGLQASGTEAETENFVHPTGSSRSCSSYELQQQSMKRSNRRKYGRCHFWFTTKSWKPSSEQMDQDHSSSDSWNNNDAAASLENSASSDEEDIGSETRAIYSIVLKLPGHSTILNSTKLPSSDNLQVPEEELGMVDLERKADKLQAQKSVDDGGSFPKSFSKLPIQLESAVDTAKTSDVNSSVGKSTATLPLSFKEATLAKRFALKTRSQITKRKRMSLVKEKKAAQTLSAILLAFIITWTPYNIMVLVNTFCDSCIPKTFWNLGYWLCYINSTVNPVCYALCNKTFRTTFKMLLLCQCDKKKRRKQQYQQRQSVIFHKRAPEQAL
Description: as §1, §2, §3

[4] = biological target: T2, hM5 (Homo sapiens, UniProt P08912); assay: Competitive [3H]NMS radioligand binding, CHO-K1 membranes expressing hM5; conditions: for Ki: [3H]NMS, CHO-hM5 cell membrane preparations, read-out: Affinity: Ki ± SD hM5
T2 sequence (P08912 1-532): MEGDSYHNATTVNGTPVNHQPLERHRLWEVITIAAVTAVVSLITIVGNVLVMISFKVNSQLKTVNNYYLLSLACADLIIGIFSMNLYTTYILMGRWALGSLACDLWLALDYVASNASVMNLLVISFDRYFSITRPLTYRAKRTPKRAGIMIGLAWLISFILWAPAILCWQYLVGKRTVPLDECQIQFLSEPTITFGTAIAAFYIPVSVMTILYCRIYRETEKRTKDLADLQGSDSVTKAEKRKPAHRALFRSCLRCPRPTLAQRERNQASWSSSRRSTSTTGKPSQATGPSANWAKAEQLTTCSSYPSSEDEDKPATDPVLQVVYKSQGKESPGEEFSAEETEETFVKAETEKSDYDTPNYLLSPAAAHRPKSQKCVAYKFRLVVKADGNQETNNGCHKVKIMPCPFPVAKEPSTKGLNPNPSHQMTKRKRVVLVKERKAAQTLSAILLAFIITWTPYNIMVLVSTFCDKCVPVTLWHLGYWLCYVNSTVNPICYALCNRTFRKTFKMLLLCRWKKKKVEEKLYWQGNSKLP
Description: as §1, §2, §3

chromatographic logD [1]	Ki [2]	Ki [3]	Ki [4]	melting point	preference for hM5R over hM1R ([4]; in vitro binding affinities)	Structure (SMILES)
1.03 ± 0.04	> 1000 nM	663 ± 56 nM	417 ± 73 nM	–	–	CN1CCC=C(C(=O)OCc2ccc(CO)cc2)C1 [Compound 8c, 4-(hydroxymethyl)benzyl 1-methyl-1,2,5,6-tetrahydropyridine-3-carboxylate]
2.8 ± 0.2	980 ± 32 nM	150 ± 26 nM	72 ± 13 nM	–	–	CN1CCC=C(C(=O)OC(c2ccccc2)c2ccc(CO)cc2)C1 (stereo not drawn) [Compound 10c, (4-(hydroxymethyl)phenyl)(phenyl)methyl 1-methyl-1,2,5,6-tetrahydropyridine-3-carboxylate]
2.69 ± 0.01	172 ± 20 nM	20.4 ± 1.2 nM	11 ± 1.5 nM	143 to 144 °C	–	CN1CCC=C(C(=O)OC(c2ccccc2)c2cccc(O)c2)C1 (stereo not drawn) [Compound 17b, (3-hydroxyphenyl)(phenyl)methyl 1-methyl-1,2,5,6-tetrahydropyridine-3-carboxylate]
1.57 ± 0.04	> 1000 nM	188 ± 18 nM	90 ± 27 nM	115 to 119 °C	almost threefold	CN1CCC=C(C(=O)OCc2cccc(O)c2)C1 [Compound 18b, 3-hydroxybenzyl 1-methyl-1,2,5,6-tetrahydropyridine-3-carboxylate]
2.69 ± 0.01	> 1000 nM	283 ± 20 nM	284 ± 62 nM	150 to 153 °C	–	CN1CCC=C(C(=O)OCC(O)(c2ccccc2)c2ccccc2)C1 [Compound 25, 2-hydroxy-2,2-diphenylethyl 1-methyl-1,2,5,6-tetrahydropyridine-3-carboxylate]
